The values below come from patent US5198445A, “Composition and use of substituted 3-thio-2-propynenitriles as industrial antimicrobials” (The Dow Chemical Company, priority 1992, dated 1993).

Test [1] relates to Pseudomonas aeruginosa (PRD-10). Briefly: MIC in nutrient agar, Pseudomonas aeruginosa PRD-10. Type of test: cell-based, Pseudomonas aeruginosa ATCC 15442. The protocol:
(§1) The minimum inhibitory concentration (MIC) for the compounds listed in Table I is determined for 9 bacteria, using nutrient agar, and 7 yeast and fungi, using malt yeast agar. A one percent solution of the test compound is prepared in a mixture of acetone and water. Nutrient agar is prepared at pH 6.8, representing a neutral medium, and at pH 8.2, representing an alkaline medium. The nutrient agars are prepared by adding 23 g of nutrient agar to one-liter of deionized water. In addition, the alkaline medium is prepared by adjusting a 0.04M solution of N-[tris-(hydroxymethyl)methyl]-glycine buffered deionized water with concentrated sodium hydroxide to a pH of […]. Malt yeast agar is prepared by adding 3 g yeast extract and 45 g malt agar per liter of deionized water. The specific agar is dispensed in 30 ml aliquots into 25×200 mm test tubes, capped and autoclaved for 15 minutes at 115° C. The test tubes containing the agar are cooled in a water bath until the temperature of the agar is 48° C. Then, an appropriate amount of the one percent solution of the test compound is added (except in the controls where no compound is added) to the respective test tubes so that the final concentrations are 500, 250, 100, 50, 25, 10, 5, 2.5, 1.0 and zero parts per million of the test compound in the agar, thus having a known concentration of test compound dispersed therein. The contents of the test tubes are then transferred to respective petri plates. After drying for 24 hours, the petri plates containing nutrient agar are inoculated with bacteria and those containing malt yeast agar are inoculated with yeast and fungi.
(§2) The inoculation with bacteria is accomplished by using the following procedure. Twenty-four hour-cultures of each of the bacteria are prepared by incubating the respective bacteria in tubes containing nutrient broth for 24 hours at 30° C. in a shaker. Dilutions of each of the 24 hour-cultures are made so that nine separate suspensions (one for each of the nine test bacteria) are made, each containing 10^8 colony forming units (CFU) per ml of suspension of a particular bacteria. Aliquots of 0.3 ml of each of the bacterial suspensions are used to fill the individual wells of Steer's Replicator. For each microbial suspension, 0.3 ml was used to fill three wells (i.e., three wells of 0.3 ml each) so that for the nine different bacteria, 27 wells are filled. The Steer's Replicator is then used to inoculate both the neutral and alkaline pH nutrient agar petri plates.
(§3) The inoculated petri plates are incubated at 30° C. for 48 hours and then read to determine if the test compound which is incorporated into the agar prevented growth of the respective bacteria.
(§4) Table II lists the bacteria, yeast and fungi used in the MIC test described above along with their respective American Type Culture Collection (ATCC) identification numbers.
(§5) The following MIC and MEC antimicrobial tests, whose results are shown in Tables XIII-XVII, are performed using the same methods as described hereinabove.

For the next test, the system named is Trichoderma viride (Tv). Briefly: MIC in malt yeast agar, Trichoderma viride. Format: cell-based, Trichoderma viride ATCC 8678. The settings on record: read-out: Minimum Inhibitory Concentration, Tv. The protocol: as §1
(§6) The inoculation with the yeast and fungi is accomplished as follows. Cultures of yeast and fungi are incubated for seven days on malt yeast agar at 30° C. These cultures are used to prepare suspensions by the following procedure. A suspension of each organism is prepared by adding 10 ml of sterile saline and 10 microliters of octylphenoxy polyethoxy ethanol (TRITON® X-100, a trademark of Rohm & Haas Company) to the agar slant of yeast or fungi. The sterile saline/octylphenoxy polyethoxy ethanol solution is then agitated with a sterile swab to suspend the microorganism grown on the slant. Each resulting suspension is diluted into sterile saline (1 part suspension: 9 parts sterile saline). Aliquots of these dilutions are placed in individual wells of Steer's Replicator and petri plates inoculated as previously described. The petri plates are incubated at 30° C. and read after 48 hours for yeast and 72 hours for fungi.
as §4, §5

A further test has as its system Candida albicans (Ca). Nature of the test: MIC in malt yeast agar, Candida albicans. Type of test: cell-based, Candida albicans ATCC 10231. The settings on record: read-out: Minimum Inhibitory Concentration, Ca. On the procedure: as §1, §6, §4, §5
The test system of test [2] is Salmonella choleraesuis (Sc). Nature of the test: MIC in nutrient agar, Salmonella choleraesuis. Type of test: cell-based, Salmonella choleraesuis ATCC 10708. On the procedure:
as §1, §2, §3, §4, §5

The subject of the next test is Fusarium oxysporum (Fo). Nature of the test: MIC in malt yeast agar, Fusarium oxysporum. Type of test: cell-based, Fusarium oxysporum ATCC 48112. To be noted: read-out: Minimum Inhibitory Concentration, Fo. On the procedure: as §1, §6, §4, §5
Test [3] deals with mixture of the bacterial organisms listed in Table II. Nature of the test: Multiple Challenge Test in tape joint formulation. Type of test: cell-based, bacteria listed in Table II. The settings on record: 10 challenges. The protocol: (§7) Additionally, the ability of the compounds of Table I to serve as preservatives in a variety of formulated industrial, household, and commercial products is tested using a Multiple Challenge Test Protocol. In this test, the formulations include a styrene-butadiene latex, a tape joint, a hand lotion, and a shampoo. The styrene-butadiene latex test formulation used is Latex DL 238A, available from The Dow Chemical Company. The compositions of the tape joint, hand lotion and shampoo test formulations can be found in Tables V-VII.
(§8) The formulations are separated into 50 g aliquots and placed in sterile bottles. An appropriate amount of a fresh one percent stock solution of the test compound in acetone-water is added to achieve the desired final concentrations. A small portion of each of the test formulations is streaked onto Tryptic Soy Agar (TSA) petri plates using sterile cotton swabs to ensure that the formulations are sterile. If the formulation is sterile, then it is inoculated with 0.1 ml of a mixture of equal aliquots of the 24 hour cultures of each of the bacterial organisms listed in Table II. The test formulations are then incubated at 30° C. After 24 hours, each sample is streaked onto a TSA petri plate using a sterile swab. All plates are then incubated at 30° C. for 48 hours and then rated for microbial growth using the rating system listed in Table VIII. Samples with a rating of 3 or less are reinoculated as described in the procedure for the first inoculation. Samples with a rating of 4 or greater are not reinoculated but after another 24 hours are restreaked on TSA agar.
(§9) The normal interpretation of the results is that a concentration of the antimicrobial being tested is considered to be effective if no ratings greater than a 3 are observed throughout the 10 challenges. The Minimum Effective Concentration (MEC), which is used to compare the activity of the antimicrobial additives in the end-use formulations, is the minimum level that is effective under the conditions of the Multiple Challenge Test.

Test [4] has the same test system. Nature of the test: Multiple Challenge Test in hand lotion formulation. To be noted: 10 challenges. Format: cell-based, bacteria listed in Table II. The protocol:
as §7, §8, §9

The subject of test [5] is Enterobacter aerogenes (Ea). Briefly: MIC in nutrient agar, Enterobacter aerogenes. Format: cell-based, Enterobacter aerogenes ATCC 13048. On the procedure: as §1, §2, §3, §4, §5
In test [6] the test system is Aureobasidium pullulan (Ap). Briefly: MIC in malt yeast agar, Aureobasidium pullulan. Type of test: cell-based, Aureobasidium pullulan ATCC 16622. The settings on record: read-out: Minimum Inhibitory Concentration, Ap. The protocol: as §1, §6, §4, §5
Setting [7] is: Pseudomonas aeruginosa, pH 6.8; read-out: Minimum Inhibitory Concentration, PRD.
The mark [8] stands for this setting: Pseudomonas aeruginosa, pH 8.2; read-out: Minimum Inhibitory Concentration, PRD.
Where [9] appears, read: Salmonella enterica, CHOLERAESUIS, pH 6.8; read-out: Minimum Inhibitory Concentration, Sc.
Setting [10] is: Salmonella enterica, CHOLERAESUIS, pH 8.2; read-out: Minimum Inhibitory Concentration, Sc.
Where [11] appears, read: Klebsiella aerogenes, pH 6.8, read-out: Minimum Inhibitory Concentration, Ea.
[12] abbreviates: Klebsiella aerogenes, pH 8.2; read-out: Minimum Inhibitory Concentration, Ea.
[13] abbreviates: Klebsiella aerogenes, pH 6.8; read-out: Minimum Inhibitory Concentration, Ea.

Values after ≈ are worked out from the molar mass of the structure shown. Where two headings read alike, the source gives them in different places. A value given as a limit tells only on which side of the number the result lay.

As to `CCSC#CC#N` [B, 3-ethylthio-2-propynenitrile], the MIC in [1] (setting [7]) is 25 µg/mL (≈ 225 µM); in test [1] (setting [8]), 25 µg/mL (≈ 225 µM); in the test on Trichoderma viride (Tv) it was 10 µg/mL (≈ 90 µM); in the test on Candida albicans (Ca) (malt yeast agar), under 1 µg/mL; in test [2] (setting [9]) it was 5 µg/mL (≈ 45 µM); in test [2] (setting [10]), 10 µg/mL (≈ 90 µM). The MIC is under 1 µg/mL in the test on Fusarium oxysporum (Fo) (malt yeast agar), 25 µg/mL (≈ 225 µM) in [5] (setting [11]), 25 µg/mL (≈ 225 µM) in test [5] (setting [12]) and under 1 µg/mL in [6] (malt yeast agar). In addition, the MEC in test [3] and in test [4] was 25 ppm throughout.
Turning to `N#CC#CSC1CCCC1` [C, 3-cyclopentylthio-2-propynenitrile], the MIC is 250 µg/mL (≈ 1650 µM) in test [1] (setting [7]); 250 µg/mL (≈ 1650 µM) in test [1] (setting [8]); 2.5 µg/mL (≈ 16.5 µM) in the test on Trichoderma viride (Tv) (malt yeast agar); under 10 µg/mL in test [2] (setting [9]); 25 µg/mL (≈ 165 µM) in [2] (setting [10]); under 1 µg/mL in the test with Fusarium oxysporum (Fo) (malt yeast agar). Also, the figures for the MIC in test [5] (setting [13]), in test [5] (setting [12]) and in test [6] (malt yeast agar) were 100 µg/mL (≈ 661 µM), 100 µg/mL (≈ 661 µM) and 2.5 µg/mL (≈ 16.5 µM), respectively. Moreover, the figures for the MEC in [3] and in [4] were 100 ppm and 250 ppm, respectively.
In the case of `CSC#CC#N` [Compound A, 3-methylthio-2-propynenitrile], the MIC came to 2.5 µg/mL (≈ 25.7 µM) in [1] (setting [7]); 5 µg/mL (≈ 51.5 µM) in [1] (setting [8]); 0.25 µg/mL (≈ 2.57 µM) in the test on Trichoderma viride (Tv) (malt yeast agar); 0.5 µg/mL (≈ 5.15 µM) in the test on Candida albicans (Ca) (malt yeast agar); 2.5 µg/mL (≈ 25.7 µM) in [2] (setting [9]); 5 µg/mL (≈ 51.5 µM) in test [2] (setting [10]). Further, the MIC worked out at 0.5 µg/mL (≈ 5.15 µM) in the test with Fusarium oxysporum (Fo) (malt yeast agar), 2.5 µg/mL (≈ 25.7 µM) in test [5] (setting [13]), 25 µg/mL (≈ 257 µM) in [5] (setting [12]) and 2.5 µg/mL (≈ 25.7 µM) in test [6] (malt yeast agar). Besides, the “Minimum Inhibitory Concentration, PRD” value in [1] (pH 8.2) is on record as 5 ppm. Also, the “Minimum Inhibitory Concentration, Sc” value in test [2] (pH 8.2) worked out at 5 ppm. Also, the MEC in [3] and in test [4] was 10 ppm each time.
`CSC=C(Cl)C#N` [Compound G, 2-chloro-3-(methylthio)-2-propenenitrile]: the MIC in [1] (Pseudomonas aeruginosa, pH 6.8, read-out: Minimum Inhibitory Concentration, PRD) stood at 50 µg/mL (≈ 374 µM); in test [1] (Pseudomonas aeruginosa, pH 8.2, read-out: Minimum Inhibitory Concentration, PRD), 10 µg/mL (≈ 74.8 µM); with Trichoderma viride (Tv) it was 100 µg/mL (≈ 748 µM); in the test on Candida albicans (Ca), 50 µg/mL (≈ 374 µM); in test [2] (Salmonella enterica, CHOLERAESUIS, pH 6.8, read-out: Minimum Inhibitory Concentration, Sc) it was 50 µg/mL (≈ 374 µM); in test [2] (Salmonella enterica, CHOLERAESUIS, pH 8.2, read-out: Minimum Inhibitory Concentration, Sc) it was 5 µg/mL (≈ 37.4 µM). In addition, the MIC in the test on Fusarium oxysporum (Fo) was determined as 50 µg/mL (≈ 374 µM); in test [5] (setting [11]) it was 50 µg/mL (≈ 374 µM); in [5] (Klebsiella aerogenes, pH 8.2, read-out: Minimum Inhibitory Concentration, Ea), 10 µg/mL (≈ 74.8 µM); in test [6], 50 µg/mL (≈ 374 µM).
Take `N#CC#CSc1ccc(Cl)cc1` [D, 3-(4-chlorophenylthio)-2-propynenitrile]: the MIC was 25 µg/mL (≈ 129 µM) in test [1] (setting [7]); 100 µg/mL (≈ 516 µM) in test [1] (setting [8]); 2.5 µg/mL (≈ 12.9 µM) with Trichoderma viride (Tv) (malt yeast agar); under 1 µg/mL with Candida albicans (Ca) (malt yeast agar); under 10 µg/mL in [2] (setting [9]); 50 µg/mL (≈ 258 µM) in test [2] (setting [10]). Further, the MIC is under 1 µg/mL in the test with Fusarium oxysporum (Fo) (malt yeast agar), under 10 µg/mL in test [5] (setting [13]), 50 µg/mL (≈ 258 µM) in [5] (setting [12]) and under 1 µg/mL in test [6] (malt yeast agar). Also, the MEC in test [3] was found to be 100 ppm; in test [4] it was 250 ppm.
